Paper PMC11879280, “Antimicrobial activity of peptoids against Metallo-β-lactamase-producing Klebsiella pneumoniae, Acinetobacter baumannii, Pseudomonas aeruginosa, and other WHO priority pathogens, including Candida auris” (Journal of Applied Microbiology, 2025)
Read-outs that look alike come from different tables or passages of the source. Square brackets hold non-standard residues; d marks the D form. Peptide text beside a SMILES is read from it. N(tridecyl)Gly = CCCCCCCCCCCCCNCC(=O)O; Nspe = C[C@H](NCC(=O)O)c1ccccc1; Nlys = NCCCCNCC(=O)O

What was measured:
Enterobacteriaceae = assay: Geometric mean MIC, therapeutic index and selectivity ratio, Enterobacteriaceae; type: cell-based; settings: Enterobacteriaceae (E. coli, K. pneumoniae, and E. aerogenes)
Method: (§1) Briefly, bacteria were suspended in cation-adjusted Mueller–Hinton broth (CAMHB; Oxoid, UK) for antibiotics, or MHB (Oxoid, UK) for peptidomimetics to obtain 5 × 10^5 colony forming unit (CFU) ml^−1. […] Positive controls contained only microbes, and blanks contained only media. Microbial suspensions (100 µl) were added to wells, plates wrapped, and incubated at 37°C, 120 rpm for 16–20 h. After incubation, suspensions were removed, log10 diluted, and plated on Trypticase Soya Agar with phosphatidylcholine and Tween 80 to determine minimum bactericidal or fungicidal concentration (MBC or MFC). […] Geometric mean MIC of the peptoids were calculated to evaluate the broad overview of antimicrobial activity across the pathogens.
The therapeutic indices (TIs) of the compounds were calculated with the use of following formula: […]

A. baumannii 005 = system: A. baumannii 005
Method: as §1

A. baumannii 006 = system: A. baumannii 006
Method: as §1

A. baumannii 007 = system: A. baumannii 007
Method: as §1

A. baumannii 008 = system: A. baumannii 008
Method: as §1

A. baumannii ATCC 19 606 = system: A. baumannii ATCC 19 606
Method: as §1

E. coli 0010 = system: E. coli 0010
Method: as §1

E. coli 0011 = system: E. coli 0011
Method: as §1

E. coli 0015 = system: E. coli 0015
Method: as §1

E. coli 005 = system: E. coli 005
Method: as §1

En. cloacae 001 = system: En. cloacae 001
Method: as §1

En. cloacae 003 = system: En. cloacae 003
Method: as §1

En. cloacae 005 = system: En. cloacae 005
Method: as §1

[1] = system: Enteroc. faecalis NCTC 13 379
Method: as §1

K. pneumoniae JIE2709 = system: K. pneumoniae JIE2709
Method: as §1

K. pneumoniae JIE2713 = system: K. pneumoniae JIE2713
Method: as §1

K. pneumoniae JIE4212 = system: K. pneumoniae JIE4212
Method: as §1

P. aeruginosa 216 = system: P. aeruginosa 216
Method: as §1

P. aeruginosa 33 = system: P. aeruginosa 33
Method: as §1

P. aeruginosa AR-1270 = system: P. aeruginosa AR-1270
Method: as §1

S. aureus 04 = system: S. aureus 04
Method: as §1

S. aureus 105 = system: S. aureus 105
Method: as §1

S. aureus 117 = system: S. aureus 117
Method: as §1

S. aureus 38 = system: S. aureus 38
Method: as §1

CCCCCCCCCCCCCNCC(=O)N(CCCCN)CC(=O)N(CC(=O)N(CC(=O)N(CCCCN)CC(=O)N(CCCCN)CC(N)=O)[C@@H](C)c1ccccc1)[C@@H](C)c1ccccc1 [TM15] (H-[N(tridecyl)Gly][Nlys][Nspe][Nspe][Nlys][Nlys]-NH2)
Geometric mean MICE (Enterobacteriaceae): 50.8 µg/mL | MIC of peptidomimetics (A. baumannii 005; 005): 64.9 µM | MIC of peptidomimetics (A. baumannii 005; A. baumannii 005, MHB (melimine/Mel4 with 0.2% BSA, 0.01% acetic acid), mean MIC): 62.5 µg/mL | MIC of peptidomimetics (A. baumannii 006; 006): 64.9 µM | MIC of peptidomimetics (A. baumannii 006; A. baumannii 006, MHB (melimine/Mel4 with 0.2% BSA, 0.01% acetic acid), mean MIC): 62.5 µg/mL | MIC of peptidomimetics (A. baumannii 007; 007): 64.9 µM | MIC of peptidomimetics (A. baumannii 007; A. baumannii 007, MHB (melimine/Mel4 with 0.2% BSA, 0.01% acetic acid), mean MIC): 62.5 µg/mL | MIC of peptidomimetics (A. baumannii 008; 008): 32.5 µM | MIC of peptidomimetics (A. baumannii 008; A. baumannii 008, MHB (melimine/Mel4 with 0.2% BSA, 0.01% acetic acid), mean MIC): 31.3 µg/mL | MIC of peptidomimetics (A. baumannii ATCC 19 606; A. baumannii ATCC 19 606, MHB (melimine/Mel4 with 0.2% BSA, 0.01% acetic acid), mean MIC): 62.5 µg/mL | MIC of peptidomimetics (A. baumannii ATCC 19 606; ATCC 19): 64.9 µM | MIC of peptidomimetics (E. coli 0010; 0010): 64.9 µM | MIC of peptidomimetics (E. coli 0010; E. coli 0010, MHB (melimine/Mel4 with 0.2% BSA, 0.01% acetic acid), mean MIC): 62.5 µg/mL | MIC of peptidomimetics (E. coli 0011; 0011): 64.9 µM | MIC of peptidomimetics (E. coli 0011; E. coli 0011, MHB (melimine/Mel4 with 0.2% BSA, 0.01% acetic acid), mean MIC): 62.5 µg/mL | MIC of peptidomimetics (E. coli 0015; 0015): 16.2 µM | MIC of peptidomimetics (E. coli 0015; E. coli 0015, MHB (melimine/Mel4 with 0.2% BSA, 0.01% acetic acid), mean MIC): 15.6 µg/mL | MIC of peptidomimetics (E. coli 005; 005): 64.9 µM | MIC of peptidomimetics (E. coli 005; E. coli 005, MHB (melimine/Mel4 with 0.2% BSA, 0.01% acetic acid), mean MIC): 62.5 µg/mL | MIC of peptidomimetics (En. cloacae 001): 16.2 µM | MIC of peptidomimetics (En. cloacae 001; En. cloacae 001, MHB (melimine/Mel4 with 0.2% BSA, 0.01% acetic acid), mean MIC): 15.6 µg/mL | MIC of peptidomimetics (En. cloacae 003): 64.9 µM | MIC of peptidomimetics (En. cloacae 003; En. cloacae 003, MHB (melimine/Mel4 with 0.2% BSA, 0.01% acetic acid), mean MIC): 62.5 µg/mL | MIC of peptidomimetics (En. cloacae 005): 32.5 µM | MIC of peptidomimetics (En. cloacae 005; En. cloacae 005, MHB (melimine/Mel4 with 0.2% BSA, 0.01% acetic acid), mean MIC): 31.3 µg/mL | MIC of peptidomimetics ([1]; Enteroc. faecalis NCTC 13 379, MHB (melimine/Mel4 with 0.2% BSA, 0.01% acetic acid), mean MIC): 31.3 µg/mL | MIC of peptidomimetics ([1]; NCTC 13): 32.4 µM | MIC of peptidomimetics (K. pneumoniae JIE2709; JIE2709): 129.8 µM | MIC of peptidomimetics (K. pneumoniae JIE2709; K. pneumoniae JIE2709, MHB (melimine/Mel4 with 0.2% BSA, 0.01% acetic acid), mean MIC): 125 µg/mL | MIC of peptidomimetics (K. pneumoniae JIE2713; JIE2713): 129.8 µM | MIC of peptidomimetics (K. pneumoniae JIE2713; K. pneumoniae JIE2713, MHB (melimine/Mel4 with 0.2% BSA, 0.01% acetic acid), mean MIC): 125 µg/mL | MIC of peptidomimetics (K. pneumoniae JIE4212; JIE4212): 64.9 µM | MIC of peptidomimetics (K. pneumoniae JIE4212; K. pneumoniae JIE4212, MHB (melimine/Mel4 with 0.2% BSA, 0.01% acetic acid), mean MIC): 62.5 µg/mL | MIC of peptidomimetics (P. aeruginosa 216; 216): 16.2 µM | MIC of peptidomimetics (P. aeruginosa 216; P. aeruginosa 216, MHB (melimine/Mel4 with 0.2% BSA, 0.01% acetic acid), mean MIC): 15.6 µg/mL | MIC of peptidomimetics (P. aeruginosa 33; 33): 16.2 µM | MIC of peptidomimetics (P. aeruginosa 33; P. aeruginosa 33, MHB (melimine/Mel4 with 0.2% BSA, 0.01% acetic acid), mean MIC): 15.6 µg/mL | MIC of peptidomimetics (P. aeruginosa AR-1270; AR-1270): 32.5 µM | MIC of peptidomimetics (P. aeruginosa AR-1270; P. aeruginosa AR-1270, MHB (melimine/Mel4 with 0.2% BSA, 0.01% acetic acid), mean MIC): 31.3 µg/mL | MIC of peptidomimetics (S. aureus 04; 04): 8.1 µM | MIC of peptidomimetics (S. aureus 04; S. aureus 004, MHB (melimine/Mel4 with 0.2% BSA, 0.01% acetic acid), mean MIC): 7.8 µg/mL | MIC of peptidomimetics (S. aureus 105; 105): 8.1 µM | MIC of peptidomimetics (S. aureus 105; S. aureus 105, MHB (melimine/Mel4 with 0.2% BSA, 0.01% acetic acid), mean MIC): 7.8 µg/mL | MIC of peptidomimetics (S. aureus 117; 117): 8.1 µM | MIC of peptidomimetics (S. aureus 117; S. aureus 117, MHB (melimine/Mel4 with 0.2% BSA, 0.01% acetic acid), mean MIC): 7.8 µg/mL | MIC of peptidomimetics (S. aureus 38; 38): 8.1 µM | MIC of peptidomimetics (S. aureus 38; S. aureus 38, MHB (melimine/Mel4 with 0.2% BSA, 0.01% acetic acid), mean MIC): 7.8 µg/mL
